{"source": "patent US20080119542A1", "about": "“METHODS OF USING ARTEMISININ-LIKE COMPOUNDS TO PREVENT OR DELAY THE APPEARANCE OF CANCER” (UNIVERSITY OF WASHINGTON, priority 2002, published 2008)", "key": {"mammary tumors [1]": {"tested_on": "mammary tumors", "experiment": "Tumor development in DMBA-treated rats given artemisinin mixed in food", "type": "in vivo, Female rats", "conditions": "artemisinin 0.05% in food, approximately 10 mg/kg/day", "from_the_text": "This Example describes a representative method for preventing or slowing the development of cancer in rats exposed to a carcinogen by providing artemisinin mixed in food.\nMaterials and Methods: Female rats were similarly treated with the carcinogen DMBA, as described in EXAMPLE 1. The rats were randomly assigned to two treatment groups. Artemisinin (0.05%) was mixed in the food of one group of animals starting the day immediately after DMBA treatment. Daily intake of artemisinin, based on the amount of food eaten each day, was estimated to be approximately 10 mg/kg/day. The other group of animals (controls) was given regular rat food."}, "mammary tumors [2]": {"tested_on": "mammary tumors", "experiment": "Tumor development in DMBA-treated rats given weekly oral intubations of artemisinin", "type": "in vivo, Female Sprague-Dawley rats", "conditions": "for Percentage of Animals with Tumors: artemisinin 10 mg/kg weekly oral intubation", "procedure": "This Example describes a representative method for preventing or slowing the development of cancer in rats exposed to a carcinogen by administering artemisinin by weekly oral intubations.\nMaterials and Methods: Female Sprague-Dawley rats were administered a single intragastric dose of the carcinogen 7,12-dimethylbenz[a]anthracene (DMBA; Sigma Chemicals, St Louis, Mo.; 50 mg/kg body weight) suspended in olive oil (Sigma Chemicals, St Louis, Mo.; 25 mg/ml). Animals were randomly assigned to two treatment groups to receive either weekly oral intubations of artemisinin (Holley Pharmaceuticals, Fullerton, Calif.; 10 mg/kg at 10 mg/ml of olive oil) or olive oil (control). Artemisinin treatment began a week after DMBA administration. Animals were palpated for the presence of mammary tumors once weekly. The time and site of detection and size were recorded for each tumor in an animal."}, "[3]": {"conditions": "cancer patient; oral 50 mg per day, intramuscular 60 mg/day, over 9 months; cited from earlier work"}}, "data": [{"smiles": "C[C@@H]1CC[C@H]2[C@@H](C)C(=O)O[C@@H]3O[C@@]4(C)CC[C@@H]1[C@]32OO4", "note": "[Artemisinin, artemisinin]", "values": [{"measurement": "Percentage of Animals with Tumors", "setting": "mammary tumors [1]; week 6 after DMBA", "result": 0, "unit": "%"}, {"measurement": "Percentage of Animals with Tumors", "setting": "mammary tumors [1]; week 7 after DMBA", "result": 0, "unit": "%"}, {"measurement": "Percentage of Animals with Tumors", "setting": "mammary tumors [1]; week 8 after DMBA", "result": 0, "unit": "%"}, {"measurement": "Percentage of Animals with Tumors", "setting": "mammary tumors [1]; week 9 after DMBA", "result": 0, "unit": "%"}, {"measurement": "Percentage of Animals with Tumors", "setting": "mammary tumors [1]; week 10 after DMBA", "result": 0, "unit": "%"}, {"measurement": "Percentage of Animals with Tumors", "setting": "mammary tumors [1]; week 10 after DMBA, listed as artemisinin", "result": "none"}, {"measurement": "Percentage of Animals with Tumors", "setting": "mammary tumors [2]; week 6 after DMBA", "result": 0, "unit": "%"}, {"measurement": "Percentage of Animals with Tumors", "setting": "mammary tumors [2]; week 6 after DMBA, listed as artemisinin", "result": "none"}, {"measurement": "Percentage of Animals with Tumors", "setting": "mammary tumors [2]; week 7 after DMBA", "result": 9, "unit": "%"}, {"measurement": "Percentage of Animals with Tumors", "setting": "mammary tumors [2]; week 9 after DMBA", "result": 9, "unit": "%"}, {"measurement": "Percentage of Animals with Tumors", "setting": "mammary tumors [2]; week 10 after DMBA", "result": 9, "unit": "%"}, {"measurement": "Percentage of Animals with Tumors", "setting": "mammary tumors [2]; week 11 after DMBA", "result": 9, "unit": "%"}, {"measurement": "Percentage of Animals with Tumors", "setting": "mammary tumors [2]; week 12 after DMBA", "result": 27, "unit": "%"}, {"measurement": "Percentage of Animals with Tumors", "setting": "mammary tumors [2]; week 13 after DMBA", "result": 45, "unit": "%"}, {"measurement": "Percentage of Animals with Tumors", "setting": "mammary tumors [2]; week 16 after DMBA", "result": 45, "unit": "%"}, {"measurement": "Percentage of Animals with Tumors", "setting": "mammary tumors [2]; week 17 after DMBA", "result": 45, "unit": "%"}, {"measurement": "Percentage of Animals with Tumors", "setting": "mammary tumors [2]; week 20 after DMBA", "result": 54, "unit": "%"}, {"measurement": "Percentage of Animals with Tumors", "setting": "mammary tumors [2]; week 29 after DMBA", "result": 64, "unit": "%"}, {"measurement": "Percentage of Animals with Tumors", "setting": "mammary tumors [2]; week 31 after DMBA", "result": 64, "unit": "%"}, {"measurement": "Percentage of Animals with Tumors", "setting": "mammary tumors [2]; week 38 after DMBA", "result": 64, "unit": "%"}, {"measurement": "Appearance of tumors in carcinogen-treated animals", "setting": "mammary tumors [2]; weekly artemisinin treatment vs olive oil controls", "result": "delayed the appearance of tumors"}]}, {"smiles": "C[C@H]1[C@H](OC(=O)CCC(=O)O)O[C@@H]2O[C@@]3(C)CC[C@H]4[C@H](C)CC[C@@H]1[C@@]24OO3", "note": "[artesunate]", "values": [{"measurement": "Adverse side effects", "setting": "[3]", "result": "No apparent adverse side effects"}]}]}
